Measured values taken from patent US9827315B2, “Compositions of pharmaceutical actives containing diethylene glycol monoethyl ether or other alkyl derivatives” (THEMIS MEDICARE LIMITED, priority 2013, dated 2017).
Converted amounts (≈) assume the structure as drawn.

Columns and labels:
[1] = Solubility of pharmaceutical actives in Diethylene glycol monoethyl ether; conditions: for solubility: Diethylene glycol monoethyl ether, organic solvent or mixture, Solubility in Diethylene Glycol Monoethyl Ether
[2] = cited from earlier work
[3] = physchem; conditions: organic solvent or mixture, Solubility in Diethylene Glycol Monoethyl Ether

Molecule | solubility [1] | Solubility in water (descriptive) [2] | also measured
Cc1ccc(-c2cc(C(F)(F)F)nn2-c2ccc(S(N)(=O)=O)cc2)cc1 [Celecoxib] | 71.4 mg/mL (≈ 187 mM) | very poorly soluble | solubility in DMSO [2]: 200 mg/mL (≈ 524 mM); solubility in ethanol [2]: 100 mg/mL (≈ 262 mM)
CCCCC[C@H](O)/C=C/[C@H]1[C@H](O)CC(=O)[C@@H]1CCCCCCC(=O)O [Prostaglandin E1 (Alprostadil), (11α,13E,15S)-11,15-dihydroxy-9-oxoprost-13-en-1-oic acid] | – | – | solubility [3]: 50 mg/mL (≈ 141 mM); solubility in double distilled water ([2]; at 35° C.): 8000 micrograms per 100 milliliter
CCN[C@H]1CN(CCCOC)S(=O)(=O)c2sc(S(N)(=O)=O)cc21 [Brinzolamide] | – | – | solubility [3]: 55.6 mg/mL (≈ 145 mM)
CCOC1O[C@@H]2O[C@@]3(C)CC[C@H]4[C@H](C)CC[C@@H]([C@H]1C)[C@@]24OO3 (mixture of isomers) [Arteether, 10-Ethoxydecahydro-3,6,9-trimethyl-3,12-epoxy-12H-pyrano[4,3-j]-1,2-benzodioxepin] | – | quite water insoluble | Solubility in Diethylene Glycol Monoethyl Ether [1]: 80 mg/mL (≈ 256 mM)
CCN1CCCC1CNC(=O)c1cc(S(=O)(=O)CC)c(N)cc1OC (stereo not drawn) [Amilsulpride] | 25 mg/mL (≈ 67.7 mM) | Practically insoluble in water, sparingly soluble in ethanol, soluble in methanol and freely soluble in dichloromethane | –
CO[C@H]1O[C@@H]2O[C@@]3(C)CC[C@H]4[C@H](C)CC[C@@H]([C@H]1C)[C@@]24OO3 [Artemether, (+)-(3-alpha,5a-beta,6-beta,8a-beta, 9-alpha,12-beta,12aR)-decahydro-10-methoxy-3,6,9-trimethyl-3,12-epoxy-12H-pyrano(4,3-j)-1,2-benzodioxepin] | 100 mg/mL (≈ 335 mM) | practically insoluble | –
C[C@]12CC[C@@H]3c4ccc(O)cc4C[C@@H](CCCCCCCCC[S+]([O-])CCCC(F)(F)C(F)(F)F)[C@H]3[C@@H]1CC[C@@H]2O (stereo partly drawn) [Fulvestrant, 7-alpha-[9-(4,4,5,5,5-pentafluoropentylsulphinyl)nonyl]estra-1,3,5-(10)-triene-3,17beta-diol] | 58.8 mg/mL (≈ 96.9 mM) | practically insoluble | –
COc1ccnc(C[S+]([O-])c2nc3ccc(OC(F)F)cc3[nH]2)c1OC (stereo not drawn) [Pantoprazole] | – | – | Solubility in Diethylene Glycol Monoethyl Ether [1]: 80 mg/mL (≈ 209 mM)
CC(=O)O[C@@]12CO[C@@H]1C[C@H](O)[C@@]1(C)C(=O)[C@H](O)C3=C(C)[C@@H](OC(=O)[C@H](O)[C@@H](NC(=O)OC(C)(C)C)c4ccccc4)C[C@@](O)([C@@H](OC(=O)c4ccccc4)[C@H]21)C3(C)C [Docetaxel, 1,7β,10β-trihydroxy-9-oxo-5β,20-epoxytax-11-ene-2α,4,13α-triyl 4-acetate 2-benzoate 13-{(2R,3S)-3-[(tert-butoxycarbonyl)amino]-2-hydroxy-3-phenylpropanoate}] | 55 mg/mL (≈ 68.1 mM) | practically insoluble | –
COc1cccc2c1C(=O)c1c(O)c3c(c(O)c1C2=O)C[C@@](O)(C(=O)CO)C[C@@H]3O[C@H]1C[C@H](N)[C@H](O)[C@H](C)O1 [Doxorubicin] | – | – | solubility in water ([2]; with slight warming): 10 mg/mL (≈ 18.4 mM)
Tacrolimus | – | Insoluble in water, freely soluble in ethanol, and very soluble in methanol and chloroform. | –

Further lines, with some results ahead:

solubility [1] | Molecule | Solubility in water (descriptive) [2] | also measured
16.7 mg/mL (≈ 57.2 mM) | CN(C/C=C/C#CC(C)(C)C)Cc1cccc2ccccc12 [Terbinafine, [(2E)-6,6-dimethylhept-2-en-4-yn-1-yl](methyl)(naphthalen-1-ylmethyl)amine] | slightly soluble | –
3 mg/mL (≈ 6.42 mM) | NC[C@H]1O[C@H](O[C@H]2[C@H](O)[C@@H](O[C@H]3O[C@H](CO)[C@@H](O)[C@H](N)[C@H]3O)[C@H](N)C[C@@H]2N)[C@H](N)C[C@@H]1O [Tobramycin] | Soluble | –
≤ 2 mg/mL | NC(=O)Cc1cccc(C(=O)c2ccccc2)c1N [Nepafenac] | – | –
12 mg/mL (≈ 34.2 mM) | CCOC(=O)C1=C[C@]2(CC)CCCN3CCc4c(n1c1ccccc41)[C@@H]32 [Vinpocetine] | Soluble in DMSO, DMF, ethanol, acetic acid, acetone, and chloroform. Insoluble in water. | –
